Where “and” joins values, the source holds several entries; their conditions need not be identical. Equal values may be shown once. Marks after values point to notes of the source that are not given here.
Tests used:
[1] = Absorption and emission spectral properties of dyes; type: physicochemical; conditions: for λabs max: monomer (m) band where an aggregate band is also listed
Protocol: General. Reagents and solvents were purchased from Sigma-Aldrich, VWR, Oakwood, Thermo Fisher and TCI and used without further purification unless stated otherwise. Anhydrous tetrahydrofuran was distilled with metal sodium and benzophenone. Column chromatography was performed using Biotage SNAP Ultra columns. ^1H, ^13C and ROESY NMR spectra were recorded on a Bruker 500 NMR spectrometer. Chemical shifts are presented in ppm and referenced by residual solvent peak. High-resolution mass spectrometry (HRMS) was performed using a time-of-flight (TOF) analyzer with electrospray ionization (ESI). Absorption spectra were recorded on an Evolution 201 UV/vis spectrometer with Thermo Insight software. Fluorescence spectra were collected on a Horiba Fluoromax-4 fluorometer with FluoroEssence software. Analyte solutions were prepared in HPLC grade water (Sigma-Aldrich), phosphate buffered saline (Thermo Fisher), fetal bovine serum (Sigma-Aldrich) or buffer B (575 mM NaCl, 37.5 mM NaH2PO4 and 0.75 mM EDTA in water, pH 7.5). All absorption and fluorescence spectra were collected using quartz cuvettes (1 mL, 1 cm path length; for emission and excitation spectra, slit width=3 nm).

[2] = biological target: T1, bovine serum albumin (BSA) (Bos taurus, UniProt P02769); experiment: Albumin binding, dye fluorescence with and without BSA; conditions: PBS, presence and absence of BSA (2 μM)
T1 construct: a solution of bovine serum albumin (BSA, 2 μM) at 37° C; purchased
Protocol: The second set of titration experiments measured the fluorescence intensity for samples of 756z and s775z at different concentrations in the presence and absence of BSA (2 μM).

[3] = Antibody conjugate absorbance and fluorescence; type: physicochemical; conditions: value used in degree of labeling calculation
Protocol: Antibody Conjugate Absorbance. Absorbance spectra of goat IgG antibody bioconjugates were collected in buffer B (575 mM NaCl, 37.5 mM NaH2PO4 and 0.75 mM EDTA in water, pH 7.5) using Implen NanoPhotometer NP80. Spectra were normalized to absorbance at 280 nm.
Antibody Conjugate Fluorescence. […] The fluorescence emission spectra were divided by the fluorescence emission intensity at 355 nm (ex: 280 nm, slit width: 2 nm) to obtain corrected spectra that accounts for variations in antibody concentration.

[4] = Dye self-aggregation by absorption/excitation spectra; type: physicochemical; conditions: in water / aqueous media, absorption spectra
Description: Self-aggregation of heptamethine cyanine dyes is readily indicated by conversion of monomer absorption bands into aggregate bands, in this case blue-shifted H-aggregates.

[5] = meso linkage is not cleaved by biological amines or thiols; cited from earlier work
[6] = Photostability, Xenon lamp irradiation; type: physicochemical
Protocol: FIG. 2. Two separate photostability studies. (a) Lamp irradiation: Four separate cuvettes, each containing 1 μM dye in PBS buffer, pH 7.4, were irradiated by a 150 W Xenon lamp with a 620 nm long-pass filter. The plot of normalized dye absorbance versus time was fit to a one-phase exponential decay. […] The length scale bar on each NIR fluorescence image is 1 cm.
Photostability Measurements. Lamp Irradiation: A solution of dye (1 μM) in PBS buffer, pH 7.4, was placed in a 1×1×4 cm^3 cuvette that was exposed to air and irradiated at a distance of 3 cm by a 150 W Xenon lamp with a 620 nm long-pass filter. An absorbance spectrum was recorded every 10 min. The normalized maximum absorbance of dye was plotted against time and fitted to a non-linear regression, one-phase exponential decay. […] A 1.5 mL vial containing the solution was irradiated at a distance of 3 cm by a 150 W Xenon lamp with a 620 nm long-pass filter.

[7] = Water solubility and storage of aqueous stock solutions; type: physicochemical; conditions: 1 mM in water
[8] = Quantum yield and fluorescence brightness relative to UL766; type: physicochemical
Description: The fluorescence spectrum of each solution was obtained with excitation at 730 nm, and the integrated area was used in the quantum yield calculation by the following equation:
[formula] where η is the refractive index of the solvent, I is the integrated fluorescence intensity, and A is the absorbance at a chosen wavelength. […]

[9] = biological target: T1, bovine serum albumin (BSA); experiment: Albumin binding, quenching of BSA tryptophan fluorescence
Protocol: FIG. 13. […] The relative fluorescence intensity at 335 nm was determined using the following equation, where F0 is the initial fluorescence intensity, F is the fluorescence intensity after each aliquot addition of dye, and the slope of the trend line (m) corresponds to Ka±SD.
Albumin Binding Measurements. Two separate sets of titration experiments were performed. The first set of titration experiments measured quenching of bovine serum albumin (BSA) tryptophan fluorescence as dye was added incrementally. […] After each aliquot addition, the solution was mixed and allowed to equilibrate for 5 min before spectral acquisition.

T1 sequence (P02769 25-607): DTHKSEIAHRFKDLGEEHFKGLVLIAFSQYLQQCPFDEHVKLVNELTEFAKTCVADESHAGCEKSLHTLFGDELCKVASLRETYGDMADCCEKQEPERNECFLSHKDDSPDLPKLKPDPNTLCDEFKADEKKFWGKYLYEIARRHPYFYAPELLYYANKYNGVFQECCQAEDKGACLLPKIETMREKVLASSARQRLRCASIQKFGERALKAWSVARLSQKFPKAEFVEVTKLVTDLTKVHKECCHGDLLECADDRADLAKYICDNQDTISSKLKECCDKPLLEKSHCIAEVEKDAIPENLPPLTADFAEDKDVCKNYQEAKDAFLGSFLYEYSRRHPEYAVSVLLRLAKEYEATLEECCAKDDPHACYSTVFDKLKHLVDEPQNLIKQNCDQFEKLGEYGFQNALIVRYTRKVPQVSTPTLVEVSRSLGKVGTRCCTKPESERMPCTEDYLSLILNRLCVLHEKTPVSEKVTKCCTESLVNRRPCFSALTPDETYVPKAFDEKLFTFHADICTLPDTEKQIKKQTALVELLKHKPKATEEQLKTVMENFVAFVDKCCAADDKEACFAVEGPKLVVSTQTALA

## CC1(C)C(/C=C/C2=C(c3ccc(C(=O)O)cc3)C(=C/C=C3/N(CCC[N+](C)(C)C)c4ccc(S(=O)(=O)O)cc4C3(C)C)/CCC2)=[N+](CCC[N+](C)(C)C)c2ccc(S(=O)(=O)O)cc21 [Dye 756z]
[1]; 2 μM BSA in pH 7.4 PBS
  SS (Stokes shift): 18 nm
  ε: 107,000 M^−1cm^−1
  λabs max, aggregate (a) band: 681 (a)/ nm
  λem max: 773 nm
  λabs max: 755 (m) nm
[1]; 100% FBS
  SS (Stokes shift): 16 nm
  ε: 118,000 M^−1cm^−1
  λabs max, aggregate (a) band: 682 (a)/ nm
  λem max: 774 nm
  λabs max: 758 (m) nm
[1]; H2O
  SS (Stokes shift): 17 nm
  ε: 56,000 M^−1cm^−1
  λabs max, aggregate (a) band: 681 (a)/ nm
  λem max: 773 nm
  λabs max: 756 (m) nm
[1]; PBS pH 7.4
  SS (Stokes shift): 17 nm
[1]; PBS pH 7.4, room temperature
  λabs max, aggregate (a) band: 681 (a)^[f] nm and 681 (a)/ nm
  λem max: 773 nm
  λabs max: 756 (m)^[f] nm and 756 (m) nm
[1]; PBS pH 7.4, room temperature, monomer band
  ε: 99,000 (0.942)^[b] M^−1cm^−1 and 99,000 M^−1cm^−1
[2]
  Effect of BSA on dye fluorescence: no effect on the dye fluorescence
[3]
  ϵmax for the monomer peak: 111,000 M^−1 cm^−1
[4]
  Aggregation state: exists largely as non-fluorescent H-aggregates
[5]
  Stable to nucleophiles: Yes
[6]; pH 7.4 PBS, 150 W Xenon lamp irradiation, 620 nm long-pass filter, 23° C., 1 μM dye
  k, rate constant of first-order decay: 0.00037 s⁻¹
[6]; separate cuvettes, dye in PBS, Xenon lamp >620 nm
  Order of photostabilities: s775z>756z>UL766>ICG
[7]
  Storage of 1 mM stock solution in water: forms a precipitate after 24 hr
[8]; PBS pH 7.4, error ±15%
  Brightness (fluorescence brightness = ε × QY): 9,600
[8]; PBS pH 7.4, relative to UL766, error ±10%
  QY: 0.097
[8]; pH 7.4 PBS, relative to UL766, error ±10%
  Quantum yield: 9.7^[b] %
[9]
  Ka relative to Ka for BSA association with ICG: about 40 times lower
[9]; BSA 2 μM, 37° C., tryptophan fluorescence quenching
  Ka for BSA: 16000 M⁻¹
[9]; tryptophan quenching titration
  Dye/BSA affinity: weak dye/BSA affinity
